Test results as given in ChEMBL document CHEMBL4619754, “Discovery of novel, potent, and orally bioavailable pyrido[2,3-d][1]benzazepin-6-one antagonists for parathyroid hormone receptor 1” (Bioorg Med Chem, 2020).
Values after ≈ are worked out from the molar mass of the structure shown.

Tests used:
[1] = Metabolic stability in rat liver microsomes assessed as parent compound remaining at 1 uM in presence of NADPH generating system measured after 20 mins by LC-MS/MS analysis; type: ADME, Microsome; settings: read-out: Stability
[2] = Drug degradation in HCL/CH2Cl2 by TLC analysis; type: physicochemical; settings: read-out: Drug degradation
[3] = Solubility of the compound in JP2 buffer at pH 6.8; type: physicochemical
[4] = Solubility of the compound in JP1 fluid at pH 1.2; type: physicochemical
[5] = target: T1, Parathyroid hormone/parathyroid hormone-related peptide receptor (Homo sapiens, UniProt Q03431); assay: Antagonist activity at PTHR1 (unknown origin) expressed in CHOK1 cells co-expressing Gs/Gq assessed as reduction in human PTH (1 to 34 residues)-induced cAMP level incubated for 30 mins; type: functional, cell-based, CHO-K1
T1 sequence (Q03431 whole entry): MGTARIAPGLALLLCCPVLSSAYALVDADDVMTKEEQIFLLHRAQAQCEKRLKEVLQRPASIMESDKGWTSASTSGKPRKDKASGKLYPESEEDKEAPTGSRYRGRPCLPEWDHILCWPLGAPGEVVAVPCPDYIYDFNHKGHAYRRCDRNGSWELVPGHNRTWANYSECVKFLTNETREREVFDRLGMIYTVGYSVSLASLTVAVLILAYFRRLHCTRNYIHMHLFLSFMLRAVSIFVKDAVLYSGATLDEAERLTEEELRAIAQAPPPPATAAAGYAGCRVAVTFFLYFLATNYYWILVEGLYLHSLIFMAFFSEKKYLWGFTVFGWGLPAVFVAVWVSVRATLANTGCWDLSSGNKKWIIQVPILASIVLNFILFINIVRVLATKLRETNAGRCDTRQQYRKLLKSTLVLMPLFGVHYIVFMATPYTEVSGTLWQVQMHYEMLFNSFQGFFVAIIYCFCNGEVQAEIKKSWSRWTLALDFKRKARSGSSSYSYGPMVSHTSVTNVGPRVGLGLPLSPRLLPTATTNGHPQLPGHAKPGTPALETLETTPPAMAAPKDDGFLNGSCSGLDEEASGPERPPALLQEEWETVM

[6] = target: CYP2C9 (Homo sapiens, UniProt P11712); assay: Inhibition of CYP2C9 (unknown origin) at 10 uM relative to control; type: ADME
[7] = AUClast in Sprague-Dawley rat at 5 mg/kg, po by LC-MS/MS analysis; type: ADME, organism-based; parameters: dose 5 mg/kg, time 0 - last, route oral; settings: in vivo
[8] = Elimination half life in Sprague-Dawley rat at 5 mg/kg, po by LC-MS/MS analysis; type: ADME, organism-based; settings: in vivo, read-out: BBB (converted)
[9] = target: CYP2C19 (Homo sapiens, UniProt P33261); assay: Inhibition of CYP2C19 (unknown origin) at 10 uM relative to control; type: ADME
[10] = Plasma clearance in Sprague-Dawley rat at 1 mg/kg, iv by LC-MS/MS analysis; type: ADME, organism-based
[11] = Volume of distribution at steady state in Sprague-Dawley rat at 1 mg/kg, iv by LC-MS/MS analysis; type: ADME, organism-based; settings: in vivo, read-out: Vdss
[12] = 1-Octanol/PBS buffer distribution coefficient, log D of the compound at pH 7.4; type: physicochemical
[13] = target: T2, CYP1A2 (Homo sapiens, UniProt P05177); assay: Inhibition of CYP1A2 (unknown origin) at 10 uM relative to control; type: ADME
T2 sequence (P05177 whole entry): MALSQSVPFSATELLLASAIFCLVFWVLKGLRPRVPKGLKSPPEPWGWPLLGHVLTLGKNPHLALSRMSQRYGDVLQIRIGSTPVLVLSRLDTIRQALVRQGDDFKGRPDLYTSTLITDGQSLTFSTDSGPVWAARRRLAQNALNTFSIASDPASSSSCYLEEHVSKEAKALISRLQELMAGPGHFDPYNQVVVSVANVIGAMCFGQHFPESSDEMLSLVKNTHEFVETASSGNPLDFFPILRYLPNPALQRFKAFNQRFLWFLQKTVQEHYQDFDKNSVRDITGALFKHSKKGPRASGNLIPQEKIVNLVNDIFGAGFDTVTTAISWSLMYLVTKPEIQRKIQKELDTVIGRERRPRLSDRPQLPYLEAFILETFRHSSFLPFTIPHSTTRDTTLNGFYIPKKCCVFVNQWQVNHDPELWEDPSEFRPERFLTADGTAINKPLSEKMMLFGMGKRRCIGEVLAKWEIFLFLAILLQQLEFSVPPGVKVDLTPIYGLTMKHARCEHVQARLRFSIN

[14] = target: CYP2D6 (Homo sapiens, UniProt P10635); assay: Inhibition of CYP2D6 (unknown origin) at 10 uM relative to control; type: ADME
[15] = target: T3, CYP2C8 (Homo sapiens, UniProt P10632); assay: Inhibition of CYP2C8 (unknown origin) at 10 uM relative to control; type: ADME
T3 sequence (P10632 whole entry): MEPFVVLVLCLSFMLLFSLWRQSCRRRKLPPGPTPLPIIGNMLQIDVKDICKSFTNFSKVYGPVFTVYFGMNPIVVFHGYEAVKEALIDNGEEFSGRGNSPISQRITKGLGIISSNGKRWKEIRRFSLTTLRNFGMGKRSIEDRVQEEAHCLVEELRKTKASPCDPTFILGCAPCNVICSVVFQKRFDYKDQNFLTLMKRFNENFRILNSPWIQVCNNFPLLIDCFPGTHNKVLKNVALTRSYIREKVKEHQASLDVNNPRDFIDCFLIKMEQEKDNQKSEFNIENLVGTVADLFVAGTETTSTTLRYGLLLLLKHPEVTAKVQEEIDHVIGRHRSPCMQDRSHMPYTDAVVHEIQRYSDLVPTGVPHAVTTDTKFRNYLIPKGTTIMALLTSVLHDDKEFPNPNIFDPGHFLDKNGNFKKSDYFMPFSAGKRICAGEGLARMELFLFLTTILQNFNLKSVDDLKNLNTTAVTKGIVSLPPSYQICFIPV

[16] = target: CYP3A4 (Homo sapiens, UniProt P08684); assay: Inhibition of CYP3A4 (unknown origin) at 10 uM relative to control; type: ADME
[17] = Oral bioavailability in Sprague-Dawley rat at 10 mg/kg by LC-MS/MS analysis; type: ADME, organism-based; settings: in vivo

Chain of CYP2C19 (P33261 whole entry): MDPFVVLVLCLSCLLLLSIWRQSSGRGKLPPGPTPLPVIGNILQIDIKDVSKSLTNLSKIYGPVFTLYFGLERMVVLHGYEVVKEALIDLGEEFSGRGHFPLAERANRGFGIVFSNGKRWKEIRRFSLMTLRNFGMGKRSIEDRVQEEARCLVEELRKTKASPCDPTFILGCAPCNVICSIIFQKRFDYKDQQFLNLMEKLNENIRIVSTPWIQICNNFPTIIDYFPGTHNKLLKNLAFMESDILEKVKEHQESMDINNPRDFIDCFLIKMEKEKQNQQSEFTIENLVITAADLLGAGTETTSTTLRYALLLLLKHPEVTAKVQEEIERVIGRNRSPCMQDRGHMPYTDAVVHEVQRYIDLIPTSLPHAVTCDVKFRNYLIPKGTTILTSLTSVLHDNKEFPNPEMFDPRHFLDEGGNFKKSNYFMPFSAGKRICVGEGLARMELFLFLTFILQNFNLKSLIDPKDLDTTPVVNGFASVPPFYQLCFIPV
Chain of CYP3A4 (P08684 whole entry): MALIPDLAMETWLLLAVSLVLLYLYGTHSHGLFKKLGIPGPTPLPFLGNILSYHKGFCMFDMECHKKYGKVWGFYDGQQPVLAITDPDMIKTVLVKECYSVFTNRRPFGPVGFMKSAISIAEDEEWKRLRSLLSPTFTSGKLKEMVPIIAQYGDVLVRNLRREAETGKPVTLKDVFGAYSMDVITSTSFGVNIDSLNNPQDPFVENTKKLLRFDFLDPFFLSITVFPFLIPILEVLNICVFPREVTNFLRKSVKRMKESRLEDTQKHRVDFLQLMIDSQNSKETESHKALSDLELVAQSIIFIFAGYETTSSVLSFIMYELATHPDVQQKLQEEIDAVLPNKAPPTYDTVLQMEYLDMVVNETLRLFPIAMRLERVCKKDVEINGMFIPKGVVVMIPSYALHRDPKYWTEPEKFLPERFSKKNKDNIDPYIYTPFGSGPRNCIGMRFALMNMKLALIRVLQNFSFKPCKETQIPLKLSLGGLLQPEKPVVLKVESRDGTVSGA
Chain of CYP2D6 (P10635 whole entry): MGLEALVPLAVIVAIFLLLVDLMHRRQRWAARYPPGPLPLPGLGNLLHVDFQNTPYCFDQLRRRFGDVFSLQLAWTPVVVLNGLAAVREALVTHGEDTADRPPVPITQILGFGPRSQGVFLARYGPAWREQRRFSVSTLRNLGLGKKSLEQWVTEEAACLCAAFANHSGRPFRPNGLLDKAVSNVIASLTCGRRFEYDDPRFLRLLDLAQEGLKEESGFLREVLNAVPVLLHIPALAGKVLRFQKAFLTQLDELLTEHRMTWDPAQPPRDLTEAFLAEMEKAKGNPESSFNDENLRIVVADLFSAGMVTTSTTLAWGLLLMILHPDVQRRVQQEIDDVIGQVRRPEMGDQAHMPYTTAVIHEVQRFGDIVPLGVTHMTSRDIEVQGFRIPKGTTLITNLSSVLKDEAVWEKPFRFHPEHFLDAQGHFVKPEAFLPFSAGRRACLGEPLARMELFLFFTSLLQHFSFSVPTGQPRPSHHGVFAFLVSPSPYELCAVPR
Chain of CYP2C9 (P11712 whole entry): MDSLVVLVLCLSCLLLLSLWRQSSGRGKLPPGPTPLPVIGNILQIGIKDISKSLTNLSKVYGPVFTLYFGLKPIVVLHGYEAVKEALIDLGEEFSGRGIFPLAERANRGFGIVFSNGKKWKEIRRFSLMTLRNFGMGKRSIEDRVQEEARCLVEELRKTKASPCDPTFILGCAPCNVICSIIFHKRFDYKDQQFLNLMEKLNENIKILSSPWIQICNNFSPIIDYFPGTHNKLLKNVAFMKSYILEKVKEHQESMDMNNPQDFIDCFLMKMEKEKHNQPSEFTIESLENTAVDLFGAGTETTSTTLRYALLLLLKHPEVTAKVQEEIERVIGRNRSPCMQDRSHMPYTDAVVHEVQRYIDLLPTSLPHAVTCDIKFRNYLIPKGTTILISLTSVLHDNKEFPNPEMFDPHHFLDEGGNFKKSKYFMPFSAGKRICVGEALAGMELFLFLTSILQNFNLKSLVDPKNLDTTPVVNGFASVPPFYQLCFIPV

| Compound | remaining at 20 min, 1 µM [1] | solubility [3] | solubility [4] | IC50 [5] | further results |
| --- | --- | --- | --- | --- | --- |
| CC1(C)N=C(C2CCCCC2)c2ccc(C#N)cc2N(c2ccc(NCCNC3CCOCC3)cc2)C1=O | 28% | – | – | – | degraded [2]: 100% |
| CC1(C)C(=O)N(c2ccc(NCCNC3CCOCC3)cc2)c2cc(F)ccc2-c2cc(Cl)cnc21 | 42% | 380 µg/mL (≈ 747 µM) | 960 µg/mL (≈ 1890 µM) | – | – |
| CC1(C)C=C(C2CCCCC2)c2ccc(C#N)cc2N(c2ccc(NCCNC3CCOCC3)cc2)C1=O | 97% | – | – | 8.8 µM | – |
| CC(C)N1N=C(C2CCCCC2)c2ccc(Cl)cc2N(c2ccc(NCCNC3CCOCC3)cn2)C1=O | – | – | – | 4.37 µM | – |
| COc1ccc2c(c1)N(c1ccc(NCCNC3CCOCC3)cc1)C(=O)C(C)(C)c1ncc(Cl)cc1-2 | 59% | 3.8 µg/mL (≈ 7.29 µM) | 250 µg/mL (≈ 480 µM) | – | – |
| CC1(C)C(=O)N(c2ccc(NCCNC3CCOCC3)cc2)c2cc(C#N)ccc2-c2cc(Cl)cnc21 | 34% | 720 µg/mL (≈ 1400 µM) | 990 µg/mL (≈ 1920 µM) | – | – |
| CC1(C)C=C(C2CCCCC2)c2ccc(Cl)cc2N(c2ccc(NCCNC3CCOCC3)cc2)C1=O | 58% | – | – | 0.97 µM | – |

The next lines start with results.

| remaining at 20 min, 1 µM [1] | solubility [3] | solubility [4] | IC50 [5] | Compound | further results |
| --- | --- | --- | --- | --- | --- |
| 19% | 470 µg/mL (≈ 923 µM) | 920 µg/mL (≈ 1810 µM) | – | CC1(C)C(=O)N(c2ccc(NCCNC3CCOCC3)cc2)c2cc(Cl)ccc2-c2cc(F)cnc21 | – |
| 75% | 4.7 µg/mL (≈ 8.96 µM) | 36 µg/mL (≈ 68.6 µM) | – | CC1(C)C(=O)N(c2ccc(NCCNC3CCOCC3)cc2)c2cc(Cl)ccc2-c2cc(Cl)ccc21 | – |
| 52% | 24 µg/mL (≈ 47.5 µM) | 870 µg/mL (≈ 1720 µM) | – | Cc1ccc2c(c1)N(c1ccc(NCCNC3CCOCC3)cc1)C(=O)C(C)(C)c1ncc(Cl)cc1-2 | – |
| 65% | 77 µg/mL (≈ 147 µM) | 570 µg/mL (≈ 1080 µM) | – | CC1(C)C(=O)N(c2ccc(NCCNC3CCOCC3)cc2)c2cc(Cl)ccc2-c2cc(Cl)cnc21 | inhibition at 10 µM [6]: < 50%; AUC(0-t) [7]: 2500 ng·h/mL; half-life [8]: 13.1 h; inhibition at 10 µM [9]: < 50%; clearance [10]: 39 mL/min/kg; Vd [11]: 29.4 L/kg; logD [12]: 3.5; inhibition at 10 µM [13]: < 50%; inhibition at 10 µM [14]: < 50%; inhibition at 10 µM [15]: < 50%; inhibition at 10 µM [16]: < 50%; bioavailability [17]: 61% |
| 62% | 510 µg/mL (≈ 1010 µM) | > 980 µg/mL | – | Cc1cnc2c(c1)-c1ccc(Cl)cc1N(c1ccc(NCCNC3CCOCC3)cc1)C(=O)C2(C)C | – |
| 21% | 9.1 µg/mL (≈ 18.6 µM) | 83 µg/mL (≈ 169 µM) | 3.2 µM | CC1(C)C(=O)N(c2ccc(NCCNC3CCOCC3)cc2)c2cc(Cl)ccc2-c2ccccc21 | – |
